Results taken from patent US9850283B2, “Macrocyclic inhibitors of the PD-1/PD-L1 and CD80(B7-1)/PD-L1 protein/protein interactions” (BRISTOL-MYERS SQUIBB COMPANY, priority 2013, dated 2017).
Where two headings read alike, the source gives them in different places. Positions of bridges follow the written chain, without caps; N, C: chain ends. Non-standard residues stand in square brackets, D forms with d. Residues, ends and D or L forms follow the SMILES beside them. ξ: configuration not given here. Phe(3-CN) = N#Cc1cccc(C[C@H](N)C(=O)O)c1; Ala(2-furyl) = N[C@@H](Cc1ccco1)C(=O)O; Phe(3-Me) = Cc1cccc(C[C@H](N)C(=O)O)c1; Phe(4-F) = N[C@@H](Cc1ccc(F)cc1)C(=O)O; Bta = N[C@@H](Cc1csc2ccccc12)C(=O)O; Hyp = O=C(O)[C@@H]1C[C@@H](O)CN1; 2Pal = N[C@@H](Cc1ccccn1)C(=O)O; dNMeNle = CCCC[C@@H](NC)C(=O)O; NMeNle = CCCC[C@H](NC)C(=O)O; hSer = N[C@@H](CCO)C(=O)O; NMeA = CN[C@@H](C)C(=O)O; Orn = NCCC[C@H](N)C(=O)O; dDap = NC[C@@H](N)C(=O)O; Dab = NCC[C@H](N)C(=O)O; Dap = NC[C@H](N)C(=O)O; ξP = O=C(O)C1CCCN1; ξC = NC(CS)C(=O)O; Sar = CNCC(=O)O

How the values were obtained:
Human PD-L1/PD-1 = target: T1, Human PD-L1/PD-1 (Homo sapiens, UniProt Q9NZQ7); assay: HTRF PD-1-Ig/PD-L1-His binding assay (human PD-L1); conditions: cluster symbol; read-out: HTRF IC50 cluster
T1 construct: made in house; host or cells: HEK293T
How it was run: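 HTRF read-out: Eu cryptate anti-Ig mAb 1 nM final, APC anti-His mAb 20 nM final, added over the binding reaction. Proteins were PD-1-Ig and PD-L1-His ectodomain fusions. Buffer was dPBS, 0.1% BSA, 0.05% Tween-20.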

[1] = target: T2, LK35.2-hPD-L1 cells / PE-labeled PD-1-Ig (Homo sapiens, UniProt Q9NZQ7); assay: LK35.2-hPD-L1 cell binding high-content screening assay; assay type: cell-based; conditions: cluster symbol, read-out: CBA IC50 cluster
T2 construct: expressed in transfected cells; host or cells: LK35.2 mouse B cell line
How it was run: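 Mouse LK35.2 B cells stably overexpressing human PD-L1 were cultured overnight in RPMI with 10% FCS, then given compound and PE-labeled human PD-1-Ig (1 nM final) for 1 h at 37 °C. After three dPBS washes, bound fluorescence was quantified by high-content imaging.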

[2] = cell line of CBA not given (LK35.2-hPD-L1 or 293T-hPD-L1)
[3] = cell binding assay, cell line not given

T2 sequence (Q9NZQ7 19-290): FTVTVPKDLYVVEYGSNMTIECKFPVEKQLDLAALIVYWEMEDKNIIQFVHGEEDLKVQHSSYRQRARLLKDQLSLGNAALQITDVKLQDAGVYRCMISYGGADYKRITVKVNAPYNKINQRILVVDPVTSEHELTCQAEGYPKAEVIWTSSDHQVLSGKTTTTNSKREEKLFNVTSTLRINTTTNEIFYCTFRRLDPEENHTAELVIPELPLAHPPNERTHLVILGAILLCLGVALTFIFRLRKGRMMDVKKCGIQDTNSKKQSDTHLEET
T1 sequence (Q9NZQ7 with tags, fused parts or gaps): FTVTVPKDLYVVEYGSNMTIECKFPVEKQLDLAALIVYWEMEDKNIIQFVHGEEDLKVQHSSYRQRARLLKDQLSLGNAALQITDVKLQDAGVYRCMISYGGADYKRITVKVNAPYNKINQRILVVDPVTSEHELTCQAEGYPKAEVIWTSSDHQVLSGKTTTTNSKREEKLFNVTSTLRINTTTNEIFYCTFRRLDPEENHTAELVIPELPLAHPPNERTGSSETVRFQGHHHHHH

Row | Compound | IC50 (Human PD-L1/PD-1) [nM] | IC50 [1, 2] [nM] | IC50 [1, 3] [nM]
1 | CCCC[C@H]1C(=O)N(C)CC(=O)N[C@@H](CC(=O)O)C(=O)N[C@@H](C(C)C)C(=O)N(C)[C@@H](Cc2ccccc2)C(=O)N[C@@H](Cc2ccc(O)cc2)C(=O)N(C)CC(=O)N[C@@H](Cc2c[nH]c3ccccc23)C(=O)N[C@@H](Cc2ccc(O)cc2)C(=O)N[C@@H](CC(C)C)C(=O)N[C@H](C(=O)NCC(N)=O)CSCC(=O)N[C@@H](Cc2ccccc2)C(=O)N(C)[C@@H](CCC(=O)O)C(=O)N1C [Example 3064] (HELM PEPTIDE1{[O=C(C[*:3])[*:2]].F.[meE].[CCCC[C@@H](C(=O)[*:2])N(C)[*:1]].[Sar].D.V.[meF].Y.[Sar].W.Y.L.C.G.[am]}$PEPTIDE1,PEPTIDE1,1:R3-14:R3$$$V2.0) | 6.76 to 30.3 | > 74.3 | 
2 | CCCC[C@H]1C(=O)N(C)[C@@H](CCCC)C(=O)N[C@@H](CCCNC(=N)N)C(=O)N[C@H](C(=O)NCC(N)=O)CSCC(=O)N[C@@H](Cc2cccc(C)c2)C(=O)N(C)[C@@H](C)C(=O)N[C@@H](CC(N)=O)C(=O)N2CCC[C@H]2C(=O)N[C@@H](CN)C(=O)N[C@@H](CC(C)C)C(=O)N2C[C@H](O)C[C@H]2C(=O)N[C@@H](Cc2c[nH]c3ccccc23)C(=O)N[C@@H](CO)C(=O)N[C@@H](Cc2c[nH]c3ccccc23)C(=O)N1C [Example 7035] ({CH2CO}-[Phe(3-Me)][NMeA]NP[Dap]L[Hyp]WSW[NMeNle][NMeNle]RCG-NH2; thioether N-14) | 0.385 to 6.74 |  | 4.78 to 72.9
3 | CCCC[C@H]1C(=O)N(C)[C@@H](CCCC)C(=O)N[C@@H](CCCNC(=N)N)C(=O)N[C@H](C(=O)NCC(N)=O)CSCC(=O)N[C@@H](Cc2ccc(O)cc2)C(=O)N(C)[C@@H](C)C(=O)N[C@@H](CC(N)=O)C(=O)N2CCC[C@H]2C(=O)N[C@@H](Cc2ccccn2)C(=O)N[C@@H](CC(C)C)C(=O)N2C[C@H](O)C[C@H]2C(=O)N[C@@H](Cc2c[nH]c3ccccc23)C(=O)N[C@@H](CO)C(=O)N[C@@H](Cc2c[nH]c3ccccc23)C(=O)N1C [Example 7026] ({CH2CO}-Y[NMeA]NP[2Pal]L[Hyp]WSW[NMeNle][NMeNle]RCG-NH2; thioether N-14) | 6.76 to 30.3 |  | 4.78 to 72.9
4 | CCCC[C@H]1C(=O)N(C)[C@@H](CCCC)C(=O)N[C@@H](CCCNC(=N)N)C(=O)N[C@H](C(=O)NCC(N)=O)CSCC(=O)N[C@@H](Cc2ccco2)C(=O)N(C)[C@@H](C)C(=O)N[C@@H](CC(N)=O)C(=O)N2CCC[C@H]2C(=O)N[C@@H](Cc2cnc[nH]2)C(=O)N[C@@H](CC(C)C)C(=O)N(C)CC(=O)N[C@@H](Cc2c[nH]c3ccccc23)C(=O)N[C@@H](CO)C(=O)N[C@@H](Cc2c[nH]c3ccccc23)C(=O)N1C [Example 1099] ({CH2CO}-[Ala(2-furyl)][NMeA]NPHL[Sar]WSW[NMeNle][NMeNle]RCG-NH2; thioether N-14) | > 30.5 | > 74.3 | 
5 | CCCC[C@H]1C(=O)N(C)[C@@H](CCCC)C(=O)N[C@@H](CCCN)C(=O)N[C@H](C(=O)NCC(N)=O)CSCC(=O)N[C@@H](Cc2ccc(O)cc2)C(=O)N2CCC[C@H]2C(=O)N[C@@H](CC(=O)O)C(=O)N2CCC[C@H]2C(=O)N[C@@H](CN)C(=O)N[C@@H](CC(=O)O)C(=O)N2C[C@H](O)C[C@H]2C(=O)N[C@@H](Cc2c[nH]c3ccccc23)C(=O)N[C@@H](CCN)C(=O)N[C@@H](Cc2csc3ccccc23)C(=O)N1C [Example 1181] ({CH2CO}-YPDP[Dap]D[Hyp]W[Dab][Bta][NMeNle][NMeNle][Orn]CG-NH2; thioether N-14) | 6.76 to 30.3 | > 74.3 | 
6 | CCCC[C@H]1C(=O)N(C)[C@@H](CCCC)C(=O)N[C@@H](CCCNC(=N)N)C(=O)N[C@H](C(=O)NCC(N)=O)CSCC(=O)N[C@@H](Cc2cccc(C#N)c2)C(=O)N(C)[C@@H](C)C(=O)N[C@@H](CC(N)=O)C(=O)N2CCC[C@H]2C(=O)N[C@@H](Cc2cnc[nH]2)C(=O)N[C@@H](CC(C)C)C(=O)N2C[C@H](O)C[C@H]2C(=O)N[C@@H](Cc2c[nH]c3ccccc23)C(=O)N[C@@H](CO)C(=O)N[C@@H](Cc2c[nH]c3ccccc23)C(=O)N1C [Example 7058] ({CH2CO}-[Phe(3-CN)][NMeA]NPHL[Hyp]WSW[NMeNle][NMeNle]RCG-NH2; thioether N-14) | 6.76 to 30.3 |  | > 74.3
7 | CCCC[C@H]1C(=O)N(C)[C@@H](CCCC)C(=O)N[C@@H](CCCNC(=N)N)C(=O)N[C@H](C(=O)NCC(N)=O)CSCC(=O)N[C@@H](Cc2ccc(O)cc2)C(=O)N(C)[C@@H](C)C(=O)N[C@@H](CN)C(=O)N2CCC[C@H]2C(=O)N[C@@H](Cc2c[nH]cn2)C(=O)N[C@@H](CC(=O)O)C(=O)N2C[C@H](O)C[C@H]2C(=O)N[C@@H](Cc2c[nH]c3ccccc23)C(=O)N[C@@H](CO)C(=O)N[C@@H](Cc2c[nH]c3ccccc23)C(=O)N1C [Example 5134] ({CH2CO}-Y[NMeA][Dap]PHD[Hyp]WSW[NMeNle][NMeNle]RCG-NH2; thioether N-14) | 0.385 to 6.74 |  | 4.78 to 72.9
8 | CCCC[C@H]1C(=O)N(C)[C@@H](CCCC)C(=O)N[C@@H](CC(=O)O)C(=O)N[C@H](C(=O)NCC(N)=O)CSCC(=O)N[C@@H](Cc2ccccc2)C(=O)N(C)[C@@H](C)C(=O)N[C@@H](CC(=O)O)C(=O)N2CCC[C@H]2C(=O)N[C@@H](Cc2cnc[nH]2)C(=O)N[C@@H](CCCNC(=N)N)C(=O)N(C)CC(=O)N[C@@H](Cc2c[nH]c3ccccc23)C(=O)N[C@@H](CCCNC(=N)N)C(=O)N[C@@H](Cc2c[nH]c3ccccc23)C(=O)N1C [Example 1056] ({CH2CO}-F[NMeA]DPHR[Sar]WRW[NMeNle][NMeNle]DCG-NH2; thioether N-14) | 6.76 to 30.3 | 4.78 to 72.9 | 
9 | CCCC[C@@H]1C(=O)N(C)[C@H](CCCC)C(=O)N[C@@H](CN)C(=O)N[C@@H](C(=O)NCC(N)=O)CSCC(=O)N[C@@H](Cc2ccc(O)cc2)C(=O)N2CCCC2C(=O)N[C@H](CC(=O)O)C(=O)N2CCC[C@H]2C(=O)N[C@H](CN)C(=O)N[C@@H](CC(=O)O)C(=O)N2CCCC2C(=O)N[C@H](Cc2c[nH]c3ccccc23)C(=O)N[C@@H](CCN)C(=O)N[C@@H](Cc2c[nH]c3ccccc23)C(=O)N1C (stereo partly shown) [Example 1212] ({CH2CO}-Y[ξP][dD]P[dDap]D[ξP][dW][Dab]W[dNMeNle][dNMeNle][Dap][dC]G-NH2; thioether N-14) | > 30.5 | > 74.3 | 
10 | C=CCCCCC[C@H]1C(=O)N(C)[C@@H](CCCCCC=C)C(=O)N[C@@H](CCCNC(=N)N)C(=O)N[C@H](C(=O)NCC(N)=O)CSCC(=O)N[C@@H](Cc2ccccc2)C(=O)N(C)[C@@H](C)C(=O)N[C@@H](CC(N)=O)C(=O)N2CCC[C@H]2C(=O)N[C@@H](Cc2cnc[nH]2)C(=O)N[C@@H](CC(C)C)C(=O)N(C)CC(=O)N[C@@H](Cc2c[nH]c3ccccc23)C(=O)N[C@@H](CO)C(=O)N[C@@H](Cc2c[nH]c3ccccc23)C(=O)N1C [Example 1047] | > 30.5 | > 74.3 | 

Next, values leading:

Row | IC50 (Human PD-L1/PD-1) [nM] | IC50 [1, 2] [nM] | IC50 [1, 3] [nM] | Compound
11 | 0.385 to 6.74 |  | 0.158 to 4.71 | CCCC[C@H]1C(=O)N(C)[C@@H](CCCC)C(=O)N[C@@H](CCCNC(=N)N)C(=O)N[C@H](C(=O)NCC(N)=O)CSCC(=O)N[C@@H](Cc2ccc(O)cc2)C(=O)N(C)[C@@H](C)C(=O)N[C@@H](CC(N)=O)C(=O)N2CCC[C@H]2C(=O)N[C@@H](CN)C(=O)N[C@@H](CCC(N)=O)C(=O)N2CCC[C@H]2C(=O)N[C@@H](Cc2c[nH]c3ccccc23)C(=O)N[C@@H](CO)C(=O)N[C@@H](Cc2c[nH]c3ccccc23)C(=O)N1C [Example 6021] ({CH2CO}-Y[NMeA]NP[Dap]QPWSW[NMeNle][NMeNle]RCG-NH2; thioether N-14)
12 | 0.385 to 6.74 |  | 4.78 to 72.9 | CCCC[C@H]1C(=O)N(C)[C@@H](CCCC)C(=O)N[C@@H](CCCNC(=N)N)C(=O)N[C@H](C(=O)NCC(N)=O)CSCC(=O)N[C@@H](Cc2ccc(F)cc2)C(=O)N(C)[C@@H](C)C(=O)N[C@@H](CC(N)=O)C(=O)N2CCC[C@H]2C(=O)N[C@@H](Cc2cnc[nH]2)C(=O)N[C@@H](CC(C)C)C(=O)N2C[C@H](O)C[C@H]2C(=O)N[C@@H](Cc2c[nH]c3ccccc23)C(=O)N[C@@H](CO)C(=O)N[C@@H](Cc2c[nH]c3ccccc23)C(=O)N1C [Example 7047] ({CH2CO}-[Phe(4-F)][NMeA]NPHL[Hyp]WSW[NMeNle][NMeNle]RCG-NH2; thioether N-14)
13 | 0.385 to 6.74 |  | 0.158 to 4.71 | CCCC[C@H]1C(=O)N(C)[C@@H](CCCC)C(=O)N[C@@H](CCCNC(=N)N)C(=O)NC(C(=O)NCC(N)=O)CSCC(=O)N[C@@H](Cc2ccc(O)cc2)C(=O)N(C)[C@@H](C)C(=O)N[C@@H](CC(N)=O)C(=O)N2CCC[C@H]2C(=O)N[C@@H](Cc2cnc[nH]2)C(=O)N[C@@H](CC(C)C)C(=O)N2CCC[C@H]2C(=O)N[C@@H](Cc2c[nH]c3ccccc23)C(=O)N[C@@H](CCO)C(=O)N[C@@H](Cc2c[nH]c3ccccc23)C(=O)N1C (stereo partly shown) [Example 9047] ({CH2CO}-Y[NMeA]NPHLPW[hSer]W[NMeNle][NMeNle]R[ξC]G-NH2; thioether N-14)
14 | 6.76 to 30.3 | 0.158 to 4.71 |  | CCCC[C@H]1C(=O)N(C)[C@@H](CCCC)C(=O)N[C@@H](C)C(=O)N[C@H](C(=O)NCC(N)=O)CSCC(=O)N[C@@H](Cc2ccc(O)cc2)C(=O)N(C)[C@@H](C)C(=O)N[C@@H](CC(N)=O)C(=O)N2CCC[C@H]2C(=O)N[C@@H](Cc2cnc[nH]2)C(=O)N[C@@H](CC(C)C)C(=O)N2CCC[C@H]2C(=O)N[C@@H](Cc2c[nH]c3ccccc23)C(=O)N[C@@H](CO)C(=O)N[C@@H](Cc2csc3ccccc23)C(=O)N1C [Example 1049] ({CH2CO}-Y[NMeA]NPHLPWS[Bta][NMeNle][NMeNle]ACG-NH2; thioether N-14)
